The values that follow come from article PMC8288134, “Synthesis, potential antitumor activity, cell cycle analysis, and multitarget mechanisms of novel hydrazones incorporating a 4-methylsulfonylbenzene scaffold: a molecular docking study” (Journal of Enzyme Inhibition and Medicinal Chemistry, 2021).

Read-outs that look alike come from different tables or passages of the source.

For one data set, the system named is A498. In words: NCI antitumor screen (SRB). The format is cell-based. As to conditions: Homo sapiens, one dose 10 µM, read-out: Growth inhibition percentage (GI%).
Data set [1] deals with full panel of 59 cancer cell lines. In words: NCI antitumor screen, full panel. As to conditions: one dose 10 µM.
The subject of another data set is K-562. As to the kind of experiment: NCI antitumor screen (SRB). The format is cell-based. Conditions: Homo sapiens, K562, read-out: Growth inhibition percentage (GI%).
The next data set has as its system HL-60(TB). As to the kind of experiment: cells. The format is cell-based, human. Conditions: Homo sapiens, HL-60, HL-60(TB); one dose 10 µM; read-out: Growth inhibition percentage (GI%).
For the next data set, the system named is SK-MEL-2. In words: NCI antitumor screen (SRB). The format is cell-based. As to conditions: Homo sapiens.
For another data set, the system named is PC-3. As to the kind of experiment: NCI antitumor screen (SRB). The format is cell-based. Conditions: Homo sapiens, one dose 10 µM, read-out: Growth inhibition percentage (GI%).
The subject of the next data set is MOLT-4. As to the kind of experiment: NCI antitumor screen (SRB). The format is cell-based. As to conditions: Homo sapiens, one dose 10 µM, read-out: Growth inhibition percentage (GI%).
Another data set relates to NCI-H522. As to the kind of experiment: NCI antitumor screen (SRB). The format is cell-based. As to conditions: Homo sapiens.
For a further data set, the system named is CCRF-CEM. In words: NCI antitumor screen (SRB). The format is cell-based. Conditions: Homo sapiens, one dose 10 µM, read-out: Growth inhibition percentage (GI%).
For the next data set, the system named is HCT-116. In words: NCI antitumor screen (SRB). The format is cell-based. Conditions: Homo sapiens, read-out: Growth inhibition percentage (GI%).
A further data set has as its system SR. In words: NCI antitumor screen (SRB). The format is cell-based. As to conditions: Homo sapiens, one dose 10 µM, read-out: Growth inhibition percentage (GI%).
In the next data set the test system is UACC-257. As to the kind of experiment: NCI antitumor screen (SRB). The format is cell-based, human. Conditions: Homo sapiens, one dose 10 µM, read-out: Growth inhibition percentage (GI%).
Another data set deals with A549/ATCC. In words: NCI antitumor screen (SRB). As to conditions: Homo sapiens, one dose 10 µM, read-out: Growth inhibition percentage (GI%). The format is cell-based.
The test system of a further data set is NCI-H226. As to the kind of experiment: NCI antitumor screen (SRB). As to conditions: Homo sapiens, one dose 10 µM, read-out: Growth inhibition percentage (GI%). The format is cell-based.
For a further data set, the system named is HT29. As to the kind of experiment: NCI antitumor screen (SRB). As to conditions: Homo sapiens, HT-29, one dose 10 µM, read-out: Growth inhibition percentage (GI%). The format is cell-based.
Another data set has as its system OVCAR-8. As to the kind of experiment: NCI antitumor screen (SRB). The format is cell-based. Conditions: Homo sapiens, one dose 10 µM, read-out: Growth inhibition percentage (GI%).
The subject of a further data set is HOP-62. As to the kind of experiment: NCI antitumor screen (SRB). Conditions: Homo sapiens, HOP-62, read-out: Growth inhibition percentage (GI%). The format is cell-based.
The next data set has as its system UO-31. As to the kind of experiment: NCI antitumor screen (SRB). The format is cell-based, human. Conditions: Homo sapiens, one dose 10 µM, read-out: Growth inhibition percentage (GI%).
The subject of the next data set is SK-OV-3. In words: NCI antitumor screen (SRB). Conditions: Homo sapiens, one dose 10 µM, read-out: Growth inhibition percentage (GI%). The format is cell-based.
The test system of a further data set is T-47D. In words: NCI antitumor screen (SRB). The format is cell-based. Conditions: Homo sapiens, T47D, one dose 10 µM, read-out: Growth inhibition percentage (GI%).
The next data set deals with SNB-75. As to the kind of experiment: NCI antitumor screen (SRB). The format is cell-based. As to conditions: Homo sapiens, one dose 10 µM, read-out: Growth inhibition percentage (GI%).
The subject of the next data set is CAKI-1. In words: NCI antitumor screen (SRB). Conditions: Homo sapiens, one dose 10 µM, read-out: Growth inhibition percentage (GI%). The format is cell-based.
Where [2] appears, read: SK-MEL-2, read-out: Growth inhibition percentage (GI%).
Where [3] appears, read: NCI-H522, read-out: Growth inhibition percentage (GI%).

The term inhibition denotes how much of the control response was suppressed. Regarding `CS(=O)(=O)c1ccc(C(=O)NN=Cc2ccc(Cl)cc2)cc1` [Compound 7, N'-(4-Chlorobenzylidene)-4-(methylsulfonyl)benzohydrazide], the inhibition at 10 µM turned out to be 12.3% with A498; 14% with K-562; 52.1% in the data set on HL-60(TB); 12.8% with SK-MEL-2 (setting [2]); 22.8% in the data set with PC-3; 29.4% in the data set with MOLT-4. In the data set on NCI-H522 (setting [3]), the inhibition at 10 µM was 15.7%. In data set [1], the “PCE: positive cytotoxic effect (number of cell lines with GI 10 to 100% / total number of cell lines)” value was 7/59.

In the case of `CS(=O)(=O)c1ccc(C(=O)NN=Cc2ccc(F)cc2)cc1` [Compound 8, N'-(4-Fluorobenzylidene)-4-(methylsulfonyl)benzohydrazide], the “PCE: positive cytotoxic effect (number of cell lines with GI 10 to 100% / total number of cell lines)” value in data set [1] is on record as 9/59. Further, the inhibition at 10 µM stood at 13.6% in the data set with K-562; 11.8% in the data set on CCRF-CEM; 10.8% in the data set on HCT-116; 23.1% in the data set on HL-60(TB); 20.2% with SR; 18.4% in the data set on UACC-257 (UACC-257). The values for the inhibition at 10 µM in the data set with MOLT-4, in the data set on NCI-H522 (setting [3]) and with A549/ATCC were 23.9%, 15.9% and 11.1%, respectively.

Turning to `COc1ccc(C=NNC(=O)c2ccc(S(C)(=O)=O)cc2)cc1` [Compound 10, N'-(4-Methoxybenzylidene)-4-(methylsulfonyl)benzohydrazide], the inhibition at 10 µM in the data set with NCI-H226 worked out at 13.4%; with HT29, 10.8%; with CCRF-CEM it was 10.6%; with HL-60(TB), 42.9%; with SK-MEL-2 (setting [2]), 11.8%; in the data set on UACC-257 (UACC-257), 29%. The inhibition at 10 µM worked out at 13.8% in the data set on PC-3; 21.1% with MOLT-4; 20.8% in the data set with NCI-H522 (setting [3]); 11.3% in the data set on OVCAR-8; 29.8% in the data set on A549/ATCC. Further, in data set [1], the “PCE: positive cytotoxic effect (number of cell lines with GI 10 to 100% / total number of cell lines)” value is reported as 11/59.

With `CS(=O)(=O)c1ccc(C(=O)N/N=C/c2ccc(O)cc2)cc1` [Compound 11], in data set [1], the “PCE: positive cytotoxic effect (number of cell lines with GI 10 to 100% / total number of cell lines)” value was 5/59. The inhibition at 10 µM in the data set on K-562 was found to be 26.2%; with HL-60(TB), 50.5%; in the data set with PC-3, 10.9%; in the data set with MOLT-4, 32.5%; in the data set on NCI-H522 (setting [3]) it was 11.7%.

On to `CN(C)c1ccc(C=NNC(=O)c2ccc(S(C)(=O)=O)cc2)cc1` [Compound 12, N'-(4-(Dimethylamino)benzylidene)-4-(methylsulfonyl)benzohydrazide], for which the “PCE: positive cytotoxic effect (number of cell lines with GI 10 to 100% / total number of cell lines)” value in [1] was 9/59. The inhibition at 10 µM in the data set with K-562 came to 17.2%; in the data set with HT29 it was 20.5%; in the data set with HOP-62 it was 11.4%; in the data set with HL-60(TB), 38%; with UACC-257 (UACC-257) it was 39.2%; with UO-31 (UO-31), 11.2%. Further, the results for the inhibition at 10 µM in the data set on MOLT-4, with NCI-H522 (setting [3]) and with A549/ATCC were 29.8%, 40.4% and 28.4%, respectively.

With `CS(=O)(=O)c1ccc(C(=O)NN=Cc2ccccc2Cl)cc1` [Compound 13, N'-(2-Chlorobenzylidene)-4-(methylsulfonyl)benzohydrazide], in [1], the “PCE: positive cytotoxic effect (number of cell lines with GI 10 to 100% / total number of cell lines)” value is 10/59. For the same compound, the inhibition at 10 µM in the data set on K-562 was 32.5%; in the data set with HOP-62 it was 12.7%; with SK-OV-3, 11.7%; with HL-60(TB), 47.7%; in the data set with UACC-257 (UACC-257), 35.5%; with T-47D, 12.5%. Besides, the inhibition at 10 µM in the data set with UO-31 (UO-31) was found to be 15.7%; in the data set on MOLT-4, 32.3%; with SNB-75 it was 15.1%; in the data set on A549/ATCC, 21.6%.

`CS(=O)(=O)c1ccc(C(=O)NN=Cc2ccccc2F)cc1` [Compound 14, N'-(2-Fluorobenzylidene)-4-(methylsulfonyl)benzohydrazide]: the “PCE: positive cytotoxic effect (number of cell lines with GI 10 to 100% / total number of cell lines)” value in [1] is recorded as 12/59. Besides, the inhibition at 10 µM worked out at 25.7% with K-562; 18.6% in the data set with HT29; 15.8% in the data set on HOP-62; 11.7% in the data set on CAKI-1; 36% with HL-60(TB); 49.2% in the data set with SR. The inhibition at 10 µM was 42.4% in the data set with UACC-257 (UACC-257); 11.8% in the data set on T-47D; 26.4% in the data set with MOLT-4; 26% in the data set with NCI-H522 (setting [3]); 14.5% in the data set with OVCAR-8; 29.3% in the data set on A549/ATCC.

As for `COc1ccccc1C=NNC(=O)c1ccc(S(C)(=O)=O)cc1` [Compound 15, N'-(2-Methoxybenzylidene)-4-(methylsulfonyl)benzohydrazide], the inhibition at 10 µM in the data set on NCI-H226 came out at 10.3%; in the data set on K-562, 23.4%; in the data set on CCRF-CEM it was 16.1%; with HOP-62, 18.9%; with HCT-116, 10.7%; in the data set on SK-OV-3, 17.1%. For the same compound, the inhibition at 10 µM was 36.5% in the data set with HL-60(TB); 15.6% in the data set with SR; 10.1% with UACC-257 (UACC-257); 18.2% with T-47D; 19.1% in the data set on PC-3; 14.4% with UO-31 (UO-31). Besides, the inhibition at 10 µM was found to be 11.6% in the data set with MOLT-4 and 11.9% in the data set on A549/ATCC. Also, the “PCE: positive cytotoxic effect (number of cell lines with GI 10 to 100% / total number of cell lines)” value in data set [1] is listed as 14/59.

`COc1ccc(C=NNC(=O)c2ccc(S(C)(=O)=O)cc2)cc1OC` [Compound 21, N'-(3,4-Dimethoxybenzylidene)-4-(methylsulfonyl)benzohydrazide]: the “PCE: positive cytotoxic effect (number of cell lines with GI 10 to 100% / total number of cell lines)” value in data set [1] was 8/59. Further, the inhibition at 10 µM worked out at 19.1% in the data set with K-562; 11% with HCT-116; 11% in the data set on CAKI-1; 45.9% in the data set with HL-60(TB); 11.5% with PC-3; 34.1% with MOLT-4. Besides, the inhibition at 10 µM worked out at 14.2% in the data set on SNB-75 and 15.7% with NCI-H522 (setting [3]).

For the compound `CS(=O)(=O)c1ccc(C(=O)NN=Cc2ccc3c(c2)OCO3)cc1` [Compound 22, N'-(Benzo[d][1,3]dioxol-5-ylmethylene)-4-(methylsulfonyl)benzohydrazide], the “PCE: positive cytotoxic effect (number of cell lines with GI 10 to 100% / total number of cell lines)” value in data set [1] is on record as 9/59. Further, the inhibition at 10 µM is 14.5% in the data set with K-562; 11% in the data set with HT29; 13% in the data set with CCRF-CEM; 43% in the data set on HL-60(TB); 10.9% in the data set with SK-MEL-2 (setting [2]); 40.9% with UACC-257 (UACC-257). The inhibition at 10 µM with MOLT-4 came out at 29.9%; in the data set with NCI-H522 (setting [3]), 14%; in the data set with A549/ATCC it was 32.3%.

With `COc1cc(OC)c(OC)cc1/C=N/NC(=O)c1ccc(S(C)(=O)=O)cc1` [Compound 24], in data set [1], the “PCE: positive cytotoxic effect (number of cell lines with GI 10 to 100% / total number of cell lines)” value was 8/59. Also, the inhibition at 10 µM in the data set with HT29 was 17.9%; in the data set on SK-MEL-2 (SK-MEL-2, one dose 10 µM, read-out: Growth inhibition percentage (GI%)), 11.7%; in the data set with UACC-257 (UACC-257, UACC-257) it was 21.6%; with PC-3, 18.6%; in the data set on UO-31 (UO-31, UO-31), 10.5%; with MOLT-4, 21.4%. For the same compound, the inhibition at 10 µM is 39.8% in the data set on NCI-H522 (NCI-H522, one dose 10 µM, read-out: Growth inhibition percentage (GI%)) and 17.1% in the data set on A549/ATCC.
